Laboratory results reported in US20100136541A1, “IDENTIFICATION AND VERIFICATION OF METHYLATION MARKER SEQUENCES” (Siemens Healthcare Diagnostics Inc., priority 2003, published 2010).

Key:
[1] = test system: GPX3 CpG sites; assay: Bisulfite sequencing of CpG sites, cell lines treated vs. untreated; assay type: cell-based, human; set-up: unit not given here; details: cell line pool
Description: (§1) Samples: Paired tumor and adjacent normal tissues from twelve colorectal cancer patients were collected under institutional review board (IRB) approval with patient consent. Tissues were flash frozen in LN2 and stored at −80° C. prior to DNA extraction. All tissues were blinded. Cell lines: A panel of five colorectal cancer cell lines was used. Cells were grown to ˜50% confluence in the appropriate culture medium prior to treatment with 5-aza-2′-deoxycytidine. Optimal concentrations and incubation times (Table 4) were determined by assaying for reduction of p16 promoter methylation using MSP. Cells were harvested, pelleted by centrifugation, and washed twice in Hanks buffered saline solution. Cell pellets were stored at −80° C. Control cells were maintained simultaneously without 5-aza-2′-deoxycytidine treatment. DNA extraction: DNA was purified from tissues and cell lines using the QIAGEN DNeasy® Tissue Kit. Approximately 25-35 mg of each tissue was pulverized under liquid nitrogen before extraction. Elution volume for tissues was 2004. A final volume of […] of cell line DNA was extracted from 15 to 254 of each packed cell pellet (between 10^6-10^7 cells). Purified DNA was stored at −20° C. Bisulfite modification: Modification was performed according to the Frommer method (See Frommer M, et al., PNAS, 89: 1827-1831 (1992).) One μg genomic DNA was diluted into 50 μl with distilled H2O, 5.5 μl of 2M NaOH was added, and the mixture incubated at 37° C. for 10 minutes (to create single stranded DNA). Thirty μl of freshly prepared 10 mM hydroquinone (Sigma) was added to each tube. Five hundred twenty μl of freshly prepared 3M sodium bisulfite (Sigma S-8890), pH 5.0 was then added. Reagents were thoroughly mixed and then covered with mineral oil and incubated at 50° C. for 16 hours. After removing the oil, 1 ml of Wizard DNA Cleanup Resin (Promega A7280) was added to each tube prior to applying the mixture to miniprep column in the DNA Wizard Cleanup kit. The column was washed with 2 ml of 80% isopropanol, and eluted with 50 μl of heated water (60-70° C.). 5.5 μl of 3 M NaOH to was added to each tube, and incubated at room temperature for 5 minutes. Then 1 μl glycogen was added as carrier, 33 μl of 10 M NH4Ac, and 3 volumes of ethanol for DNA precipitation. The pellet was spun down and washed with 70% ethanol, dried and resuspended in 20 μl water. In some instances, the EZ DNA Methylation Kit (Zymo Research) which uses a simplified version of the Frommer method was used. In these cases, 1 μg of genomic DNA was denatured in 0.3M NaOH for 15 minutes at 37° C. followed by incubation at 50° C. for 16 hours in 0.5 mM hydroquinone and a saturated solution of sodium bisulfite at pH 5. Modified DNA was bound to the Zymo column membrane, then desulfonated with 0.3M NaOH for 15 minutes at room temperature. DNA was washed and resuspended with 50 μL 10 mM Tris-HCl-0.1 mM EDTA, pH 7.5 and stored at −20° C. The bisulfite reaction results in conversion of an unmethylated cytosine to uracil. Methylated cytosine remains unchanged after the bisulfite reaction. The resulting bisulfite modified DNA is single stranded. PCR amplification for sequencing: Primers were designed to amplify both methylated and unmethylated fragments of DNA (Table 5). Five μL of modified DNA ( 1/10 of modification reaction) was amplified first in a 254, reaction volume containing 10 mM Tris-HCl pH8.3, 50 mM KCl, 1.5 mM to 2 mM MgCl2, (Applied Biosystems), 0.25 mM each dNTP, 0.5 unit AmpliTaq (Applied Biosystems), and sequencing primers (each at 200 nM). Cycling conditions were 10 minutes at 95° C., 40 cycles of 30 seconds at 95° C., 30 seconds at 54-62° C., 30 seconds at 72° C., subsequently followed by extension for 5 minutes at 72° C.
(§2) Reaction products were purified either by the shrimp-alkaline phosphatase-Exol standard method or on the Qiagen Qiaquick PCR clean-up column and eluted in 30 μL 10 mM Tris-HCl, pH8.5. […]

[2] = test system: SCNN1B CpG sites; assay: as above; assay type: cell-based, human; set-up: unit not given here
Description: as §1, §2

Nc1ncn([C@H]2C[C@H](O)[C@@H](CO)O2)c(=O)n1 [5-aza-2′-deoxycytidine]
Sequencing results for GPX3, CpG site #25 [1]: 70
Sequencing results for GPX3, CpG site #27 [1]: 100
Sequencing results for GPX3, CpG site #31 [1]: 67
Sequencing results for GPX3, CpG site #49 [1]: 70
Sequencing results for GPX3, CpG site #56 [1]: 98
Sequencing results for GPX3, CpG site #75 [1]: 72
Sequencing results for GPX3, CpG site #84 [1]: 77
Sequencing results for GPX3, CpG site #86 [1]: 74
Sequencing results for GPX3, CpG site #101 [1]: 84
Sequencing results for GPX3, CpG site #126 [1]: 75
Sequencing results for GPX3, CpG site #129 [1]: 80
Sequencing results for GPX3, CpG site #142 [1]: 97
Sequencing results for GPX3, CpG site #146 [1]: 80
Sequencing results for GPX3, CpG site #167 [1]: 89
SCNN1B sequencing result (methylation) at CpG site #179 ([2]; HT29 treated): 70
SCNN1B sequencing result (methylation) at CpG site #192 ([2]; HT29 treated): 90
SCNN1B sequencing result (methylation) at CpG site #203 ([2]; HT29 treated): 36
SCNN1B sequencing result (methylation) at CpG site #223 ([2]; HT29 treated): 79
SCNN1B sequencing result (methylation) at CpG site #228 ([2]; HT29 treated): 74
SCNN1B sequencing result (methylation) at CpG site #230 ([2]; HT29 treated): 67
SCNN1B sequencing result (methylation) at CpG site #234 ([2]; HT29 treated): 69
SCNN1B sequencing result (methylation) at CpG site #238 ([2]; HT29 treated): 75
SCNN1B sequencing result (methylation) at CpG site #245 ([2]; HT29 treated): 65
SCNN1B sequencing result (methylation) at CpG site #267 ([2]; HT29 treated): 55
SCNN1B sequencing result (methylation) at CpG site #295 ([2]; HT29 treated): 26
SCNN1B sequencing result (methylation) at CpG site #179 ([2]; LS123 treated): 56
SCNN1B sequencing result (methylation) at CpG site #192 ([2]; LS123 treated): 63
SCNN1B sequencing result (methylation) at CpG site #203 ([2]; LS123 treated): 42
SCNN1B sequencing result (methylation) at CpG site #223 ([2]; LS123 treated): 90
SCNN1B sequencing result (methylation) at CpG site #228 ([2]; LS123 treated): 87
SCNN1B sequencing result (methylation) at CpG site #230 ([2]; LS123 treated): 82
SCNN1B sequencing result (methylation) at CpG site #234 ([2]; LS123 treated): 80
SCNN1B sequencing result (methylation) at CpG site #238 ([2]; LS123 treated): 77
SCNN1B sequencing result (methylation) at CpG site #245 ([2]; LS123 treated): 81
SCNN1B sequencing result (methylation) at CpG site #267 ([2]; LS123 treated): 59
SCNN1B sequencing result (methylation) at CpG site #295 ([2]; LS123 treated): 23
SCNN1B sequencing result (methylation) at CpG site #179 ([2]; LS174T treated): 7
SCNN1B sequencing result (methylation) at CpG site #192 ([2]; LS174T treated): 56
SCNN1B sequencing result (methylation) at CpG site #203 ([2]; LS174T treated): 40
SCNN1B sequencing result (methylation) at CpG site #223 ([2]; LS174T treated): 75
SCNN1B sequencing result (methylation) at CpG site #228 ([2]; LS174T treated): 81
SCNN1B sequencing result (methylation) at CpG site #230 ([2]; LS174T treated): 72
SCNN1B sequencing result (methylation) at CpG site #234 ([2]; LS174T treated): 70
SCNN1B sequencing result (methylation) at CpG site #238 ([2]; LS174T treated): 55
SCNN1B sequencing result (methylation) at CpG site #245 ([2]; LS174T treated): 40
SCNN1B sequencing result (methylation) at CpG site #267 ([2]; LS174T treated): 47
SCNN1B sequencing result (methylation) at CpG site #295 ([2]; LS174T treated): 7
SCNN1B sequencing result (methylation) at CpG site #179 ([2]; SW480 treated): 80
SCNN1B sequencing result (methylation) at CpG site #192 ([2]; SW480 treated): 44
SCNN1B sequencing result (methylation) at CpG site #203 ([2]; SW480 treated): 21
SCNN1B sequencing result (methylation) at CpG site #223 ([2]; SW480 treated): 89
SCNN1B sequencing result (methylation) at CpG site #228 ([2]; SW480 treated): 83
SCNN1B sequencing result (methylation) at CpG site #230 ([2]; SW480 treated): 80
SCNN1B sequencing result (methylation) at CpG site #234 ([2]; SW480 treated): 80
SCNN1B sequencing result (methylation) at CpG site #238 ([2]; SW480 treated): 87
SCNN1B sequencing result (methylation) at CpG site #245 ([2]; SW480 treated): 51
SCNN1B sequencing result (methylation) at CpG site #267 ([2]; SW480 treated): 57
SCNN1B sequencing result (methylation) at CpG site #295 ([2]; SW480 treated): 69
SCNN1B sequencing result (methylation) at CpG site #179 ([2]; SW620 treated): 59
SCNN1B sequencing result (methylation) at CpG site #192 ([2]; SW620 treated): 88
SCNN1B sequencing result (methylation) at CpG site #203 ([2]; SW620 treated): 30
SCNN1B sequencing result (methylation) at CpG site #223 ([2]; SW620 treated): 93
SCNN1B sequencing result (methylation) at CpG site #228 ([2]; SW620 treated): 95
SCNN1B sequencing result (methylation) at CpG site #230 ([2]; SW620 treated): 94
SCNN1B sequencing result (methylation) at CpG site #234 ([2]; SW620 treated): 91
SCNN1B sequencing result (methylation) at CpG site #238 ([2]; SW620 treated): 86
SCNN1B sequencing result (methylation) at CpG site #245 ([2]; SW620 treated): 26
SCNN1B sequencing result (methylation) at CpG site #267 ([2]; SW620 treated): 67
SCNN1B sequencing result (methylation) at CpG site #295 ([2]; SW620 treated): 23
